Source: PubChem BioAssay AID248 (DTP/NCI, 2004)
Several values for one entry are separate records, joined by “and”; a condition that tells them apart may be missing. Equal values may be shown once. Toxic doses and inconclusive results are not listed. Peptide text beside a SMILES is read from it. * marks the point of attachment. Cbz = O=C(OCc1ccccc1)*

Test system: L1210 leukemia ip in BDF1 mice, survival T/C
Experiment: NCI In Vivo Anticancer Drug Screen. Data for tumor model L1210 Leukemia (intraperitoneal) in B6D2F1 (BDF1) mice
Settings: higher = longer survival
Method in brief: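 Each compound was tested against a transplantable tumor grown in mice. The endpoint was survival, with treated animals benchmarked against vehicle controls as a simple ratio.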

[1] = endpoint: mean survival time, dose: 100.0 mg/kg/injection, schedule: Q01DX009 (ip), vehicle: Klucel (hydroxypropylcellulose) (HPC)
[2] = endpoint: mean survival time, dose: 200.0 mg/kg/injection, schedule: Q01DX009 (ip), vehicle: Klucel (hydroxypropylcellulose) (HPC)
[3] = endpoint: mean survival time, dose: 50.0 mg/kg/injection, schedule: Q01DX009 (ip), vehicle: saline with Tween-80
[4] = endpoint: mean survival time, dose: 100.0 mg/kg/injection, schedule: Q01DX009 (ip), vehicle: saline with Tween-80
[5] = endpoint: mean survival time, dose: 200.0 mg/kg/injection, schedule: Q01DX009 (ip), vehicle: saline with Tween-80
[6] = endpoint: mean survival time, dose: 400.0 mg/kg/injection, schedule: Q01DX009 (ip), vehicle: saline with Tween-80
[7] = endpoint: mean survival time, dose: 100.0 mg/kg/injection, schedule: Q01DX001 (ip), vehicle: saline
[8] = endpoint: mean survival time, dose: 200.0 mg/kg/injection, schedule: Q01DX001 (ip), vehicle: saline
[9] = endpoint: mean survival time, dose: 400.0 mg/kg/injection, schedule: Q01DX001 (ip), vehicle: saline
[10] = endpoint: mean survival time, dose: 100.0 mg/kg/injection, schedule: Q04DX003 (ip), vehicle: Klucel (hydroxypropylcellulose) (HPC)
[11] = endpoint: mean survival time, dose: 200.0 mg/kg/injection, schedule: Q04DX003 (ip), vehicle: Klucel (hydroxypropylcellulose) (HPC)
[12] = endpoint: mean survival time, dose: 100.0 mg/kg/injection, schedule: Q04DX003 (ip), vehicle: saline
[13] = endpoint: mean survival time, dose: 200.0 mg/kg/injection, schedule: Q04DX003 (ip), vehicle: saline
[14] = endpoint: mean survival time, dose: 50.0 mg/kg/injection, schedule: Q01DX009 (ip), vehicle: saline
[15] = endpoint: mean survival time, dose: 100.0 mg/kg/injection, schedule: Q01DX009 (ip), vehicle: saline
[16] = endpoint: mean survival time, dose: 200.0 mg/kg/injection, schedule: Q01DX009 (ip), vehicle: saline
[17] = endpoint: mean survival time, dose: 400.0 mg/kg/injection, schedule: Q04DX003 (ip), vehicle: saline

Structure (SMILES): CC(C)(C)N(Cc1ccccc1)C(=O)Nc1ccccc1
- T/C [1]: 97 % of control
- T/C [2]: 110 % of control
- T/C (endpoint: mean survival time, dose: 400.0 mg/kg/injection, schedule: Q01DX009 (ip), vehicle: Klucel (hydroxypropylcellulose) (HPC)): 103 % of control

Structure (SMILES): O=C(O)CNC(CSCc1ccccc1)CSCc1ccccc1
- T/C (endpoint: mean survival time, dose: 25.0 mg/kg/injection, schedule: Q01DX009 (ip), vehicle: saline with Tween-80): 101 % of control
- T/C [3]: 106 % of control
- T/C [4]: 90 % of control
- T/C [5]: 97 % of control
- T/C [6]: 103 % of control

Structure (SMILES): O=c1cc(NCc2cccc3ccccc23)[nH]c(=O)[nH]1
- T/C (endpoint: mean survival time, dose: 37.5 mg/kg/injection, schedule: Q01DX001 (ip), vehicle: Klucel (hydroxypropylcellulose) (HPC)): 97 % of control
- T/C (endpoint: mean survival time, dose: 75.0 mg/kg/injection, schedule: Q01DX001 (ip), vehicle: Klucel (hydroxypropylcellulose) (HPC)): 95 % of control
- T/C (endpoint: mean survival time, dose: 150.0 mg/kg/injection, schedule: Q01DX001 (ip), vehicle: Klucel (hydroxypropylcellulose) (HPC)): 93 % of control

Structure (SMILES): Cn1c(=O)cc(/C=C/c2ccc(-c3ccccc3)cc2)c2ccccc21
- T/C [7]: 103 % of control
- T/C [8]: 93 % of control
- T/C [9]: 93 % of control

Structure (SMILES): Cn1nnc(CCO)n1
- T/C [7]: 95 % of control
- T/C [8]: 95 % of control
- T/C [9]: 100 % of control

Structure (SMILES): Cc1noc(C)c1C=O
- T/C [10]: 102 % of control
- T/C [11]: 95 % of control

Structure (SMILES): O=C1Nc2ccc3c(c2/C1=C\c1cc2c(cc1Br)OCO2)OCO3
- T/C (endpoint: mean survival time, dose: 50.0 mg/kg/injection, schedule: Q01DX001 (ip), vehicle: alcohol): 93 % of control
- T/C (endpoint: mean survival time, dose: 100.0 mg/kg/injection, schedule: Q01DX001 (ip), vehicle: alcohol): 93 % of control
- T/C (endpoint: mean survival time, dose: 200.0 mg/kg/injection, schedule: Q01DX001 (ip), vehicle: alcohol): 98 % of control
- T/C (endpoint: mean survival time, dose: 400.0 mg/kg/injection, schedule: Q01DX001 (ip), vehicle: alcohol): 96 % of control

Structure (SMILES): O=C(O)c1ccc(Br)cc1
- T/C [12]: 89 % of control
- T/C [13]: 86 % of control

Structure (SMILES): COc1ccc(CC(Cc2ccc(OC)c(OC)c2)NC=O)cc1OC
- T/C [4]: 95 % of control
- T/C [5]: 97 % of control
- T/C [6]: 100 % of control

Structure (SMILES): NC(N)=N/N=C(\c1ccc(Cl)cc1)C1CC1
- T/C (endpoint: mean survival time, dose: 15.0 mg/kg/injection, schedule: Q01DX Z (ip), vehicle: methylcellulose (MC)): 101 % of control
- T/C (endpoint: mean survival time, dose: 30.0 mg/kg/injection, schedule: Q01DX Z (ip), vehicle: methylcellulose (MC)): 95 % of control
- T/C (endpoint: mean survival time, dose: 30.0 mg/kg/injection, schedule: Q01DX Z (oral), vehicle: methylcellulose (MC)): 92 % of control
- T/C (endpoint: mean survival time, dose: 60.0 mg/kg/injection, schedule: Q01DX Z (ip), vehicle: methylcellulose (MC)): 98 % of control
- T/C (endpoint: mean survival time, dose: 60.0 mg/kg/injection, schedule: Q01DX Z (oral), vehicle: methylcellulose (MC)): 93 % of control
- T/C (endpoint: mean survival time, dose: 240.0 mg/kg/injection, schedule: Q01DX Z (oral), vehicle: methylcellulose (MC)): 95 % of control
- T/C (endpoint: mean survival time, dose: 375.0 mg/kg/injection, schedule: Q01DX Z (oral), vehicle: methylcellulose (MC)): 92 % of control
- T/C (endpoint: mean survival time, dose: 500.0 mg/kg/injection, schedule: Q01DX Z (oral), vehicle: methylcellulose (MC)): 88 % of control

Structure (SMILES): Cn1c(=O)cc(CCl)c2ccccc21
- T/C (endpoint: mean survival time, dose: 100.0 mg/kg/injection, schedule: Q01DX001 (ip), vehicle: other): 105 % of control

Structure (SMILES): O=NN(CCCl)C(=O)Nc1ncc([N+](=O)[O-])s1
- T/C (endpoint: mean survival time, dose: 8.0 mg/kg/injection, schedule: Q01DX001 (ip), vehicle: other): 105 % of control
- T/C (endpoint: mean survival time, dose: 16.0 mg/kg/injection, schedule: Q01DX001 (ip), vehicle: other): 105 % of control
- T/C (endpoint: mean survival time, dose: 31.0 mg/kg/injection, schedule: Q01DX001 (ip), vehicle: other): 110 % of control
- T/C (endpoint: mean survival time, dose: 62.0 mg/kg/injection, schedule: Q01DX001 (ip), vehicle: other): 109 % of control
- T/C (endpoint: mean survival time, dose: 125.0 mg/kg/injection, schedule: Q01DX001 (ip), vehicle: other): 116 % of control

Structure (SMILES): CC(C)C(N)C(=O)NO (stereo unspecified)
- T/C [14]: 95 % of control
- T/C [15]: 100 % of control
- T/C [16]: 107 % of control
- T/C (endpoint: mean survival time, dose: 400.0 mg/kg/injection, schedule: Q01DX009 (ip), vehicle: saline): 110 % of control

Structure (SMILES): O=c1oc2cccc(O)c2c(O)c1Cc1ccccc1
- T/C [12]: 97 % of control
- T/C [13]: 94 % of control
- T/C [17]: 94 % of control

Structure (SMILES): COC(Cl)C(Cl)(Cl)Cl (stereo unspecified)
- T/C [14]: 93 % of control
- T/C (endpoint: mean survival time, dose: 100.0 mg/kg/injection, schedule: Q01DX001 (ip), vehicle: acetone): 103 % of control
- T/C [15]: 88 % of control
- T/C [12]: 103 % of control
- T/C (endpoint: mean survival time, dose: 200.0 mg/kg/injection, schedule: Q01DX001 (ip), vehicle: acetone): 90 % of control
- T/C [16]: 91 % of control
- T/C [13]: 100 % of control
- T/C (endpoint: mean survival time, dose: 400.0 mg/kg/injection, schedule: Q01DX001 (ip), vehicle: acetone): 92 % of control

Structure (SMILES): O=C(O)C1C2CC=CCC21 (stereo unspecified)
- T/C (endpoint: mean survival time, dose: 25.0 mg/kg/injection, schedule: Q01DX001 (ip), vehicle: Klucel (hydroxypropylcellulose) (HPC)): 102 % of control
- T/C (endpoint: mean survival time, dose: 50.0 mg/kg/injection, schedule: Q01DX001 (ip), vehicle: Klucel (hydroxypropylcellulose) (HPC)): 101 % of control
- T/C (endpoint: mean survival time, dose: 100.0 mg/kg/injection, schedule: Q01DX001 (ip), vehicle: Klucel (hydroxypropylcellulose) (HPC)): 93 % of control and 94 % of control
- T/C [10]: 101 % of control
- T/C (endpoint: mean survival time, dose: 200.0 mg/kg/injection, schedule: Q01DX001 (ip), vehicle: Klucel (hydroxypropylcellulose) (HPC)): 93 % of control
- T/C [11]: 98 % of control
- T/C (endpoint: mean survival time, dose: 400.0 mg/kg/injection, schedule: Q01DX001 (ip), vehicle: Klucel (hydroxypropylcellulose) (HPC)): 97 % of control
- T/C (endpoint: mean survival time, dose: 400.0 mg/kg/injection, schedule: Q04DX003 (ip), vehicle: Klucel (hydroxypropylcellulose) (HPC)): 102 % of control

Structure (SMILES): Nc1cccc(CC(=O)Nc2ccc(S(=O)(=O)F)cc2)c1
- T/C [7]: 90 % of control
- T/C [8]: 106 % of control
- T/C [9]: 100 % of control

Structure (SMILES): Cc1cc(NCCCCCCCNc2cc(C)nc3cc(N)ccc23)c2ccc(N)cc2n1
- T/C (endpoint: median survival time, dose: 1.56 mg/kg/injection, schedule: Q01DX009 (ip), vehicle: water): 123 % of control
- T/C (endpoint: median survival time, dose: 6.25 mg/kg/injection, schedule: Q01DX009 (ip), vehicle: water): 154 % of control
- T/C (endpoint: median survival time, dose: 12.5 mg/kg/injection, schedule: Q01DX009 (ip), vehicle: water): 194 % of control
- T/C (endpoint: median survival time, dose: 25.0 mg/kg/injection, schedule: Q01DX009 (ip), vehicle: water): 116 % of control

Structure (SMILES): CCCCCCCCCOC(=O)NC1c2ccccc2Oc2ccccc21
- T/C (endpoint: mean survival time, dose: 100.0 mg/kg/injection, schedule: Q01DX009 (ip), vehicle: acetone): 93 % of control
- T/C [12]: 98 % of control
- T/C [13]: 98 % of control
- T/C [17]: 88 % of control

Structure (SMILES): NC1=NN(c2ccccc2)C(=O)/C1=C\c1ccccc1
- T/C [3]: 102 % of control
- T/C [4]: 98 % of control
- T/C [5]: 91 % of control

Structure (SMILES): COC(=O)CNC(=O)C(CC(C)C)NC(=O)C(CC(C)C)NC(=O)C(C)NC(=O)OCc1ccccc1 (stereo unspecified) (Cbz-ALLG-OMe; configuration not given here)
- T/C [12]: 94 % of control
- T/C [13]: 98 % of control
- T/C [17]: 98 % of control

Structure (SMILES): O=C(O)C(Cl)Cc1cnc[nH]1 (stereo unspecified)
- T/C [14]: 100 % of control
- T/C [15]: 100 % of control
- T/C [16]: 103 % of control

Structure (SMILES): CC1Nc2ccccc2N2C(=O)CCC12 (stereo unspecified)
- T/C (endpoint: mean survival time, dose: 50.0 mg/kg/injection, schedule: Q01DX009 (ip), vehicle: Klucel (hydroxypropylcellulose) (HPC)): 106 % of control
- T/C [1]: 103 % of control
- T/C [2]: 106 % of control

Structure (SMILES): Cc1cc(Cl)sc1Cl
- T/C (endpoint: mean survival time, dose: 100.0 mg/kg/injection, schedule: Q01DX001 (ip), vehicle: carboxymethylcellulose (CMC)): 98 % of control
- T/C (endpoint: mean survival time, dose: 200.0 mg/kg/injection, schedule: Q01DX001 (ip), vehicle: carboxymethylcellulose (CMC)): 93 % of control
- T/C (endpoint: mean survival time, dose: 400.0 mg/kg/injection, schedule: Q01DX001 (ip), vehicle: carboxymethylcellulose (CMC)): 92 % of control
